# Measured values published in patent publication US12371454B2, “Cyclic peptide compound having Kras inhibitory action” (priority 2019, dated 2025).
# Starred links: 1 amine or outer side, 2 acyl side, 3 side chain; linkers in the order of their positions; H or OH if unused. Positions of bridges follow the written chain, without caps; N, C: chain ends. Non-standard residues stand in square brackets, D forms with d. Residues, ends and D or L forms follow the SMILES beside them. *: point of attachment. hPhe(3-Cl-4-CF3) = N[C@@H](CCc1ccc(C(F)(F)F)c(Cl)c1)C(=O)O; hPhe(3-F,4-CF3) = N[C@@H](CCc1ccc(C(F)(F)F)c(F)c1)C(=O)O; NMeGly(cPent) = CN[C@H](C(=O)O)C1CCCC1; mXylylene = c1cc(C[*:1])cc(C[*:2])c1; oXylylene = c1ccc(C[*:2])c(C[*:1])c1; NMeCha = CN[C@@H](CC1CCCCC1)C(=O)O; cisHyp = O=C(O)[C@@H]1C[C@H](O)CN1; Hyp = O=C(O)[C@@H]1C[C@@H](O)CN1; NMeAhp(2) = CCCCC[C@H](NC)C(=O)O; NMeChg = CN[C@H](C(=O)O)C1CCCCC1; NMeD = CN[C@@H](CC(=O)O)C(=O)O; Benzyl(4-Cl) = Clc1ccc(C*)cc1; NMeL = CN[C@@H](CC(C)C)C(=O)O; NMehSer = CN[C@@H](CCO)C(=O)O; Morpholide = C1CN(*)CCO1; Piperidide = C1CCN(*)CC1; X45 = FC(F)Oc1ccc(C*)cc1; Ac5c = NC1(C(=O)O)CCCC1; Aze = O=C(O)[C@@H]1CCN1; X30 = COc1cccc(C*)c1; Meb = Cc1ccc(C*)cc1; X27 = Clc1ccccc1C*; X36 = c1cc(C*)cs1; Sar = CNCC(=O)O
# Tested on: Human pancreatic cancer cell line AsPC-1
# Experiment: Measurement of AsPC-1 cell growth inhibition (AsPC-1 CGI)
# Assay type: cell-based
# Settings: 96 h
# Summary of the method: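 AsPC-1 cells in 15% FBS RPMI-1640 were exposed to test compound for 96 hours at 37° C, with CellTiter-Glo as endpoint.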
row,Compound,IC50
1,CCCCC[C@H]1C(=O)N[C@@H]([C@@H](C)CC)C(=O)N[C@@H](C)C(=O)N2CC[C@H]2C(=O)N(C)[C@@H](C2CCCC2)C(=O)N(C)CC(=O)N[C@@H](CCc2ccc(C(F)(F)F)c(Cl)c2)C(=O)N2CCC[C@H]2C(=O)NC2(CCCC2)C(=O)N(C)[C@@H](C2CCCC2)C(=O)N(C)[C@H](C(=O)N2CCOCC2)CC(=O)N1C [Compound 11] ([NMeAhp(2)]IA[Aze][NMeGly(cPent)][Sar][hPhe(3-Cl-4-CF3)]P[Ac5c][NMeGly(cPent)][NMeD]-Morpholide; lactam N-11),50 to 100 nM
2,CC[C@H](C)[C@@H]1NC(=O)[C@H](CC(C)C)N(C)C(=O)C[C@@H](C(=O)N2CCCCC2)N(C)C(=O)[C@H](C2CCCCC2)N(C)C(=O)C2(CCCC2)NC(=O)[C@@H]2C[C@@H](OCc3ccsc3)CN2C(=O)[C@H](CCc2ccc(C(F)(F)F)c(Cl)c2)NC(=O)CN(C)C(=O)[C@H](CC2CCCCC2)N(C)C(=O)CN(C)C(=O)CN(C)C1=O [Compound 2124] ([NMeL]I[Sar][Sar][NMeCha][Sar][hPhe(3-Cl-4-CF3)][Hyp](X36)[Ac5c][NMeChg][NMeD]-Piperidide; lactam N-11),100 to 500 nM
3,"CC[C@H](C)[C@@H]1NC(=O)[C@H](CC(C)C)N(C)C(=O)C[C@@H](C(=O)N2CCCCC2)N(C)C(=O)[C@H](CC(C)C)N(C)C(=O)C2(CCCC2)NC(=O)[C@@H]2C[C@@H](OCc3cccc(C)c3)CN2C(=O)[C@H](CCc2ccc(C(F)(F)F)c(F)c2)NC(=O)CN(C)C(=O)[C@H](CC2CCCCC2)N(C)C(=O)CN(C)C(=O)CN(C)C1=O [Compound 2125] ([NMeL]I[Sar][Sar][NMeCha][Sar][hPhe(3-F,4-CF3)][Hyp](mXylylene)[Ac5c][NMeL][NMeD]-Piperidide; lactam N-11)",> 500 nM
4,"CC[C@H](C)[C@@H]1NC(=O)[C@H](CC(C)C)N(C)C(=O)C[C@@H](C(=O)N2CCCCC2)N(C)C(=O)[C@H](CC(C)C)N(C)C(=O)C2(CCCC2)NC(=O)[C@@H]2C[C@@H](OCc3ccc(OC(F)F)cc3)CN2C(=O)[C@H](CCc2ccc(C(F)(F)F)c(F)c2)NC(=O)CN(C)C(=O)[C@H](CC2CCCCC2)N(C)C(=O)CN(C)C(=O)CN(C)C1=O [Compound 2128] ([NMeL]I[Sar][Sar][NMeCha][Sar][hPhe(3-F,4-CF3)][Hyp](X45)[Ac5c][NMeL][NMeD]-Piperidide; lactam N-11)",> 500 nM
5,"CC[C@H](C)[C@@H]1NC(=O)[C@H](CC(C)C)N(C)C(=O)C[C@@H](C(=O)N2CCCCC2)N(C)C(=O)[C@H](CC(C)C)N(C)C(=O)C2(CCCC2)NC(=O)[C@@H]2C[C@H](OCc3ccc(Cl)cc3)CN2C(=O)[C@H](CCc2ccc(C(F)(F)F)c(F)c2)NC(=O)CN(C)C(=O)[C@H](CC2CCCCC2)N(C)C(=O)CN(C)C(=O)CN(C)C1=O [Compound 2129] ([NMeL]I[Sar][Sar][NMeCha][Sar][hPhe(3-F,4-CF3)][cisHyp](Benzyl(4-Cl))[Ac5c][NMeL][NMeD]-Piperidide; lactam N-11)",> 500 nM
6,"CC[C@H](C)[C@@H]1NC(=O)[C@H](CC(C)C)N(C)C(=O)C[C@@H](C(=O)N2CCCCC2)N(C)C(=O)[C@H](CC(C)C)N(C)C(=O)C2(CCCC2)NC(=O)[C@@H]2C[C@@H](OCc3ccc(C)cc3)CN2C(=O)[C@H](CCc2ccc(C(F)(F)F)c(F)c2)NC(=O)CN(C)C(=O)[C@H](CC2CCCCC2)N(C)C(=O)CN(C)C(=O)CN(C)C1=O [Compound 2130] ([NMeL]I[Sar][Sar][NMeCha][Sar][hPhe(3-F,4-CF3)][Hyp](Meb)[Ac5c][NMeL][NMeD]-Piperidide; lactam N-11)",> 500 nM
7,"CC[C@H](C)[C@@H]1NC(=O)[C@H](CC(C)C)N(C)C(=O)C[C@@H](C(=O)N2CCCCC2)N(C)C(=O)[C@H](CC(C)C)N(C)C(=O)C2(CCCC2)NC(=O)[C@@H]2C[C@@H](OCc3cccc(OC)c3)CN2C(=O)[C@H](CCc2ccc(C(F)(F)F)c(F)c2)NC(=O)CN(C)C(=O)[C@H](CC2CCCCC2)N(C)C(=O)CN(C)C(=O)CN(C)C1=O [Compound 2131] ([NMeL]I[Sar][Sar][NMeCha][Sar][hPhe(3-F,4-CF3)][Hyp](X30)[Ac5c][NMeL][NMeD]-Piperidide; lactam N-11)",100 to 500 nM
8,"CC[C@H](C)[C@@H]1NC(=O)[C@H](CC(C)C)N(C)C(=O)C[C@@H](C(=O)N2CCCCC2)N(C)C(=O)[C@H](CC(C)C)N(C)C(=O)C2(CCCC2)NC(=O)[C@@H]2C[C@H](OCc3ccccc3Cl)CN2C(=O)[C@H](CCc2ccc(C(F)(F)F)c(F)c2)NC(=O)CN(C)C(=O)[C@H](CC2CCCCC2)N(C)C(=O)CN(C)C(=O)CN(C)C1=O [Compound 2132] ([NMeL]I[Sar][Sar][NMeCha][Sar][hPhe(3-F,4-CF3)][cisHyp](X27)[Ac5c][NMeL][NMeD]-Piperidide; lactam N-11)",> 500 nM
9,"CC[C@H](C)[C@@H]1NC(=O)[C@H](CC(C)C)N(C)C(=O)C[C@@H](C(=O)N2CCCCC2)N(C)C(=O)[C@H](CC(C)C)N(C)C(=O)C2(CCCC2)NC(=O)[C@@H]2C[C@H](OCc3ccc(OC(F)F)cc3)CN2C(=O)[C@H](CCc2ccc(C(F)(F)F)c(F)c2)NC(=O)CN(C)C(=O)[C@H](CC2CCCCC2)N(C)C(=O)CN(C)C(=O)CN(C)C1=O [Compound 2135] ([NMeL]I[Sar][Sar][NMeCha][Sar][hPhe(3-F,4-CF3)][cisHyp](X45)[Ac5c][NMeL][NMeD]-Piperidide; lactam N-11)",> 500 nM
10,"CC[C@H](C)[C@@H]1NC(=O)[C@H](CC(C)C)N(C)C(=O)C[C@@H](C(=O)N2CCCCC2)N(C)C(=O)[C@H](CC(C)C)N(C)C(=O)C2(CCCC2)NC(=O)[C@@H]2C[C@H](OCc3cccc(OC)c3)CN2C(=O)[C@H](CCc2ccc(C(F)(F)F)c(F)c2)NC(=O)CN(C)C(=O)[C@H](CC2CCCCC2)N(C)C(=O)CN(C)C(=O)CN(C)C1=O [Compound 2136] ([NMeL]I[Sar][Sar][NMeCha][Sar][hPhe(3-F,4-CF3)][cisHyp](X30)[Ac5c][NMeL][NMeD]-Piperidide; lactam N-11)",> 500 nM
11,"CC[C@H](C)[C@@H]1NC(=O)[C@H](CC(C)C)N(C)C(=O)C[C@@H](C(=O)N2CCCCC2)N(C)C(=O)[C@H](CC(C)C)N(C)C(=O)C2(CCCC2)NC(=O)[C@@H]2C[C@H](OCc3ccccc3C)CN2C(=O)[C@H](CCc2ccc(C(F)(F)F)c(F)c2)NC(=O)CN(C)C(=O)[C@H](CC2CCCCC2)N(C)C(=O)CN(C)C(=O)CN(C)C1=O [Compound 2137] ([NMeL]I[Sar][Sar][NMeCha][Sar][hPhe(3-F,4-CF3)][cisHyp](oXylylene)[Ac5c][NMeL][NMeD]-Piperidide; lactam N-11)",> 500 nM
12,"CC[C@H](C)[C@@H]1NC(=O)[C@H](CC(C)C)N(C)C(=O)C[C@@H](C(=O)N2CCCCC2)N(C)C(=O)[C@H](CC(C)C)N(C)C(=O)C2(CCCC2)NC(=O)[C@@H]2C[C@@H](OCc3ccccc3Cl)CN2C(=O)[C@H](CCc2ccc(C(F)(F)F)c(F)c2)NC(=O)CN(C)C(=O)[C@H](CC2CCCCC2)N(C)C(=O)CN(C)C(=O)CN(C)C1=O [Compound 2138] ([NMeL]I[Sar][Sar][NMeCha][Sar][hPhe(3-F,4-CF3)][Hyp](X27)[Ac5c][NMeL][NMeD]-Piperidide; lactam N-11)",100 to 500 nM
13,"CC[C@H](C)[C@@H]1NC(=O)[C@H](CC(C)C)N(C)C(=O)C[C@@H](C(=O)N2CCCCC2)N(C)C(=O)[C@H](CC(C)C)N(C)C(=O)C2(CCCC2)NC(=O)[C@@H]2C[C@@H](OCc3ccccc3C)CN2C(=O)[C@H](CCc2ccc(C(F)(F)F)c(F)c2)NC(=O)CN(C)C(=O)[C@H](CC2CCCCC2)N(C)C(=O)CN(C)C(=O)CN(C)C1=O [Compound 2139] ([NMeL]I[Sar][Sar][NMeCha][Sar][hPhe(3-F,4-CF3)][Hyp](oXylylene)[Ac5c][NMeL][NMeD]-Piperidide; lactam N-11)",100 to 500 nM
14,"CC[C@H](C)[C@@H]1NC(=O)[C@H](CC(C)C)N(C)C(=O)C[C@@H](C(=O)N2CCCCC2)N(C)C(=O)[C@H](CC(C)C)N(C)C(=O)C2(CCCC2)NC(=O)[C@@H]2C[C@H](OCc3ccc(C)cc3)CN2C(=O)[C@H](CCc2ccc(C(F)(F)F)c(F)c2)NC(=O)CN(C)C(=O)[C@H](CC2CCCCC2)N(C)C(=O)CN(C)C(=O)CN(C)C1=O [Compound 2140] ([NMeL]I[Sar][Sar][NMeCha][Sar][hPhe(3-F,4-CF3)][cisHyp](Meb)[Ac5c][NMeL][NMeD]-Piperidide; lactam N-11)",> 500 nM
15,"CC[C@H](C)[C@@H]1NC(=O)[C@H](CC(C)C)N(C)C(=O)C[C@@H](C(=O)N2CCCCC2)N(C)C(=O)[C@H](CC(C)C)N(C)C(=O)C2(CCCC2)NC(=O)[C@@H]2C[C@H](OCc3cccc(C)c3)CN2C(=O)[C@H](CCc2ccc(C(F)(F)F)c(F)c2)NC(=O)CN(C)C(=O)[C@H](CC2CCCCC2)N(C)C(=O)CN(C)C(=O)CN(C)C1=O [Compound 2141] ([NMeL]I[Sar][Sar][NMeCha][Sar][hPhe(3-F,4-CF3)][cisHyp](mXylylene)[Ac5c][NMeL][NMeD]-Piperidide; lactam N-11)",> 500 nM
16,CC[C@H](C)[C@@H]1NC(=O)[C@H](CC(C)C)N(C)C(=O)C[C@@H](C(=O)N2CCCCC2)N(C)C(=O)[C@H](C2CCCCC2)N(C)C(=O)C2(CCCC2)NC(=O)[C@H](CCOC)N(C)C(=O)[C@H](CCc2ccc(C(F)(F)F)c(Cl)c2)NC(=O)CN(C)C(=O)[C@H](CC2CCCCC2)N(C)C(=O)CN(C)C(=O)CN(C)C1=O [Compound 2168] ([NMeL]I[Sar][Sar][NMeCha][Sar][hPhe(3-Cl-4-CF3)][NMehSer](Me)[Ac5c][NMeChg][NMeD]-Piperidide; lactam N-11),100 to 500 nM

# Molecular target: T1, Kras and SOS1 (biotin-tagged human Kras loaded with GDP, His-tagged human SOS1) (Homo sapiens, UniProt P01116, G12D)
# T1 construct: made in house; host or cells: E. coli (stated for Kras only)
# Experiment: Protein-protein interaction inhibition between Kras and SOS1 (KrasGl2D-SOS PPI) using AlphaScreen
# Assay type: binding
# Settings: AlphaScreen; biotin-tagged human Kras loaded with GDP, His-tagged human SOS1; read-out: KRAS G12D-SOS PPI IC50
# Summary of the method: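 AlphaScreen format: Ni donor beads capture His-SOS1, streptavidin acceptor beads capture biotinylated Kras (E. coli-expressed, GDP-loaded post-purification). Excite 680 nm, read 520-620 nm.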
# T1 sequence (P01116 1-188 isoform P01116-2 G12D): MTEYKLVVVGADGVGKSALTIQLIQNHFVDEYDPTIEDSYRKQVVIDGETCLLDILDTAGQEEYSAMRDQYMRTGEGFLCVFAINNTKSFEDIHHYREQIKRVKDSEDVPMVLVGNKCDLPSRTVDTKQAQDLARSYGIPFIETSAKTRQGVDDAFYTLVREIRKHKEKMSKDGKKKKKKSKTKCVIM
row,Compound,IC50
1,CCCCC[C@H]1C(=O)N[C@@H]([C@@H](C)CC)C(=O)N[C@@H](C)C(=O)N2CC[C@H]2C(=O)N(C)[C@@H](C2CCCC2)C(=O)N(C)CC(=O)N[C@@H](CCc2ccc(C(F)(F)F)c(Cl)c2)C(=O)N2CCC[C@H]2C(=O)NC2(CCCC2)C(=O)N(C)[C@@H](C2CCCC2)C(=O)N(C)[C@H](C(=O)N2CCOCC2)CC(=O)N1C [Compound 11] ([NMeAhp(2)]IA[Aze][NMeGly(cPent)][Sar][hPhe(3-Cl-4-CF3)]P[Ac5c][NMeGly(cPent)][NMeD]-Morpholide; lactam N-11),1.5 nM
